Data reported in patent publication US20260241012A1, “1,8-NAPHTHYRIDIN-2-ONE HETEROBIFUNCTIONAL BCL6 DEGRADERS” (Treeline Biosciences, Inc., priority 2022, published 2026).

Target: T1, N-terminal HiBiT tagged BCL6 (Homo sapiens, UniProt P41182)
T1 construct: expressed in transfected cells; host or cells: HT1080 (ATCC CCL-121), stably transduced with lentivirus pLV-UBC-N-HiBiT-BCL6-PGK-puro
Assay: HiBiT based degradation assay
Assay type: cell-based
Conditions: HT1080 cells expressing N-terminal HiBiT tagged BCL6, 5 hours of incubation; for Ymin (5 hr): BCL6 degradation normalized with DMSO control; for DC50: four-parameter logistic model, read-out: EC50 (5 hr)
How it was run: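 Degradation measured by luminescence from the Nano-Glo HiBiT lytic reagent (15 min, room temperature), normalized to DMSO controls and fitted to a four-parameter curve.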

| Ymin (5 hr) | DC50 [µM] | Compound |
| --- | --- | --- |
| +++ (30% ≤ Ymin < 50%) | 0.01 to 0.1 | CNC(=O)COc1cc2cc(Nc3nc(N4CCC5(CC4)CC(N4CCN(c6cccc7c(C8CCC(=O)NC8=O)nn(C)c67)CC4)C5)ncc3Cl)cnc2n(C(C)C)c1=O (stereo not drawn) [Compound 230, 2-[[6-[[5-chloro-2-[2-[4-[3-(2,6-dioxo-3-piperidyl)-1-methyl-indazol-7-yl]piperazin-1-yl]-7-azaspiro [3.5]nonan-7-yl]pyrimidin-4-yl]amino]-1-isopropyl-2-oxo-1,8-naphthyridin-3-yl]oxy]-N-methyl-acetamide] |
| ++++ (Ymin < 30%) | 0.01 to 0.1 | CNC(=O)COc1cc2cc(Nc3nc(N4CCC(CN5CCN(c6cccc7c(C8CCC(=O)NC8=O)nn(C)c67)C[C@H]5CO)CC4)ncc3Cl)cnc2n(C(C)C)c1=O (stereo partly drawn) [Compound 231a, 2-[[6-[[5-chloro-2-[4-[[(2S)-4-[3-(2,6-dioxo-3-piperidyl)-1-methyl-indazol-7-yl]-2-(hydroxymethyl)piperazin-1-yl]methyl]-1-piperidyl]pyrimidin-4-yl]amino]-1-isopropyl-2-oxo-1,8-naphthyridin-3-yl]oxy]-N-methyl-acetamide] |
| ++++ (Ymin < 30%) | < 0.01 | CNC(=O)COc1cc2cc(Nc3nc(N4CCC(CN5CCN(c6cccc7c(C8CCC(=O)NC8=O)nn(C)c67)C[C@@H]5CO)CC4)ncc3Cl)cnc2n(C(C)C)c1=O (stereo partly drawn) [Compound 231b, 2-[[6-[[5-chloro-2-[4-[[(2R)-4-[3-(2,6-dioxo-3-piperidyl)-1-methyl-indazol-7-yl]-2-(hydroxymethyl)piperazin-1-yl]methyl]-1-piperidyl]pyrimidin-4-yl]amino]-1-isopropyl-2-oxo-1,8-naphthyridin-3-yl]oxy]-N-methyl-acetamide] |
| +++ (30% ≤ Ymin < 50%) | < 0.01 | CNC(=O)COc1cc2cc(Nc3nc(N4CCC(CN5CCN(c6ccc7c(C8CCC(=O)NC8=O)nn(C)c7c6)C[C@H]5CO)CC4)ncc3Cl)cnc2n(C(C)C)c1=O (stereo partly drawn) [Compound 232a, 2-[[6-[[5-chloro-2-[4-[[(2S)-4-[3-(2,6-dioxo-3-piperidyl)-1-methyl-indazol-6-yl]-2-(hydroxymethyl)piperazin-1-yl]methyl]-1-piperidyl]pyrimidin-4-yl]amino]-1-isopropyl-2-oxo-1,8-naphthyridin-3-yl]oxy]-N-methyl-acetamide] |
| +++ (30% ≤ Ymin < 50%) | < 0.01 | CNC(=O)COc1cc2cc(Nc3nc(N4CCC(CN5CCN(c6ccc7c(C8CCC(=O)NC8=O)nn(C)c7c6)C[C@@H]5CO)CC4)ncc3Cl)cnc2n(C(C)C)c1=O (stereo partly drawn) [Compound 232b, 2-[[6-[[5-chloro-2-[4-[[(2R)-4-[3-(2,6-dioxo-3-piperidyl)-1-methyl-indazol-6-yl]-2-(hydroxymethyl)piperazin-1-yl]methyl]-1-piperidyl]pyrimidin-4-yl]amino]-1-isopropyl-2-oxo-1,8-naphthyridin-3-yl]oxy]-N-methyl-acetamide] |
| ++++ (Ymin < 30%) | 0.01 to 0.1 | CNC(=O)COc1cc2cc(Nc3cc(N4CCN(CC5CCN(c6cccc7c(C8CCC(=O)NC8=O)nn(C)c67)CC5)[C@H](CO)C4)ncc3Cl)cnc2n(C(C)C)c1=O (stereo partly drawn) [Compound 233a, 2-[[6-[[5-chloro-2-[(3S)-4-[[1-[3-(2,6-dioxo-3-piperidyl)-1-methyl-indazol-7-yl]-4-piperidyl]methyl]-3-(hydroxymethyl)piperazin-1-yl]-4-pyridyl]amino]-1-isopropyl-2-oxo-1,8-naphthyridin-3-yl]oxy]-N-methyl-acetamide] |
| +++ (30% ≤ Ymin < 50%) | 0.01 to 0.1 | CNC(=O)COc1cc2cc(Nc3nc(N4CCC(CN5CCCN(c6ccc7c(C8CCC(=O)NC8=O)nn(C)c7c6)CC5)CC4)ncc3Cl)cnc2n(C(C)C)c1=O (stereo not drawn) [Compound 235, 2-[[6-[[5-chloro-2-[4-[[4-[3-(2,6-dioxo-3-piperidyl)-1-methyl-indazol-6-yl]-1,4-diazepan-1-yl]methyl]-1-piperidyl]pyrimidin-4-yl]amino]-1-isopropyl-2-oxo-1,8-naphthyridin-3-yl]oxy]-N-methyl-acetamide] |
| +++ (30% ≤ Ymin < 50%) | < 0.01 | CNC(=O)COc1cc2cc(Nc3nc(N4CCC(CN5CCCN(c6cccc7c(C8CCC(=O)NC8=O)nn(C)c67)CC5)CC4)ncc3Cl)cnc2n(C(C)C)c1=O (stereo not drawn) [Compound 236, 2-[[6-[[5-chloro-2-[4-[[4-[3-(2,6-dioxo-3-piperidyl)-1-methyl-indazol-7-yl]-1,4-diazepan-1-yl]methyl]-1-piperidyl]pyrimidin-4-yl]amino]-1-isopropyl-2-oxo-1,8-naphthyridin-3-yl]oxy]-N-methyl-acetamide] |
| ++++ (Ymin < 30%) | < 0.01 | CNC(=O)COc1cc2cc(Nc3nc(N4CCC5(CCC(CN6CCC(c7ccc8c(C9CCC(=O)NC9=O)nn(C)c8c7)CC6)CC5)CC4)ncc3Cl)cnc2n(C(C)C)c1=O (stereo not drawn) [Compound 237, 2-((6-((5-chloro-2-(9-((4-(3-(2,6-dioxopiperidin-3-yl)-1-methyl-1H-indazol-6-yl)piperidin-1-yl)methyl)-3-azaspiro[5.5]undecan-3-yl)pyrimidin-4-yl)amino)-1-isopropyl-2-oxo-1,2-dihydro-1,8-naphthyridin-3-yl)oxy)-N-methylacetamide] |
| ++++ (Ymin < 30%) | 0.01 to 0.1 | CNC(=O)COc1cc2cc(Nc3nc(N4CCC5(CCN(CC6CCN(c7cc8c(cc7F)c(C7CCC(=O)NC7=O)nn8C)CC6)CC5)CC4)ncc3Cl)cnc2n(C(C)C)c1=O (stereo not drawn) [Compound 239, 2-((6-((5-chloro-2-(9-((1-(3-(2,6-dioxopiperidin-3-yl)-5-fluoro-1-methyl-1H-indazol-6-yl)piperidin-4-yl)methyl)-3,9-diazaspiro[5.5]undecan-3-yl)pyrimidin-4-yl)amino)-1-isopropyl-2-oxo-1,2-dihydro-1,8-naphthyridin-3-yl)oxy)-N-methylacetamide] |
| ++++ (Ymin < 30%) | 0.01 to 0.1 | CNC(=O)COc1cc2cc(Nc3nc(N4CCC5(CCC(CN6CCC(c7ccc8c(C9CCC(=O)NC9=O)nn(C)c8c7F)CC6)CC5)CC4)ncc3Cl)cnc2n(C(C)C)c1=O (stereo not drawn) [Compound 240, 2-((6-((5-chloro-2-(9-((4-(3-(2,6-dioxopiperidin-3-yl)-7-fluoro-1-methyl-1H-indazol-6-yl)piperidin-1-yl)methyl)-3-azaspiro[5.5]undecan-3-yl)pyrimidin-4-yl)amino)-1-isopropyl-2-oxo-1,2-dihydro-1,8-naphthyridin-3-yl)oxy)-N-methylacetamide] |
| ++++ (Ymin < 30%) | 0.01 to 0.1 | CNC(=O)COc1cc2cc(Nc3nc(N4CCN(CC5CCN(c6cccc7c(C8CCC(=O)NC8=O)nn(C)c67)CC5(F)F)CC4)ncc3Cl)cnc2n(C(C)C)c1=O (stereo not drawn) [Compound 241, 2-((6-((5-chloro-2-(4-((1-(3-(2,6-dioxopiperidin-3-yl)-1-methyl-1H-indazol-7-yl)-3,3-difluoropiperidin-4-yl)methyl)piperazin-1-yl)pyrimidin-4-yl)amino)-1-isopropyl-2-oxo-1,2-dihydro-1,8-naphthyridin-3-yl)oxy)-N-methylacetamide] |
